Results as given in the supplement of paper PMC5908809.

Assays:
[1] = system: KHYG-1 (IL-2 2.5 ng/mL); assay: percent inhibition of viability; higher = more inhibition; conditions: 72 h
[2] = system: DERL-7 (IL-2 2.5 ng/mL); assay: as above; conditions: 72 h
[3] = system: normal primary NK cells, pool 1 (3 donors) (IL-2 2.5 ng/mL); assay: as above; conditions: 72 h
[4] = system: KAI3 (IL-2 2.5 ng/mL); assay: as above; conditions: 72 h
[5] = system: NKL (IL-2 2.5 ng/mL); assay: as above; conditions: 72 h
[6] = system: normal primary NK cells, pool 1 (3 donors), resting (IL-2 0 ng/mL); assay: as above; conditions: 72 h
[7] = system: NK-YS (IL-2 2.5 ng/mL); assay: as above; conditions: 72 h
[8] = system: SNK-6 (IL-2 2.5 ng/mL); assay: as above; conditions: 72 h
[9] = system: NK-92 (IL-2 2.5 ng/mL); assay: as above; conditions: 72 h
[10] = system: YT (IL-2 2.5 ng/mL); assay: as above; conditions: 72 h
[11] = system: KHYG-1 (IL-2 2.5 ng/mL); assay: drug sensitivity score (DSS) (DSS units); higher = more sensitive; extreme values may be limits of the assay; conditions: 72 h
[12] = system: DERL-7 (IL-2 2.5 ng/mL); assay: as above; conditions: 72 h
[13] = system: normal primary NK cells, pool 1 (3 donors) (IL-2 2.5 ng/mL); assay: as above; conditions: 72 h
[14] = system: KAI3 (IL-2 2.5 ng/mL); assay: as above; conditions: 72 h
[15] = system: NKL (IL-2 2.5 ng/mL); assay: as above; conditions: 72 h
[16] = system: normal primary NK cells, pool 1 (3 donors), resting (IL-2 0 ng/mL); assay: as above; conditions: 72 h
[17] = system: NK-YS (IL-2 2.5 ng/mL); assay: as above; conditions: 72 h
[18] = system: SNK-6 (IL-2 2.5 ng/mL); assay: as above; conditions: 72 h
[19] = system: NK-92 (IL-2 2.5 ng/mL); assay: as above; conditions: 72 h
[20] = system: YT (IL-2 2.5 ng/mL); assay: as above; conditions: 72 h
[21] = system: normal primary NK cells, pool 3 (3 donors) (IL-2 2.5 ng/mL); assay: percent inhibition of viability; higher = more inhibition; conditions: 72 h
[22] = system: IMC-1 (IL-2 20 ng/mL); assay: as above; conditions: 72 h
[23] = system: normal primary NK cells, pool 2 (3 donors) (IL-2 2.5 ng/mL); assay: as above; conditions: 72 h
[24] = system: normal NK cells expanded with K562-aAPC; assay: as above; conditions: 72 h, IL-2 2.5 ng/mL
Protocol: (§1)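 Drug sensitivity and resistance testing on K562-aAPC-expanded normal NK cells: 5 concentrations (10-fold steps over a 10,000-fold range), 72 h at 37 °C, viability by CellTiter-Glo normalised to DMSO and benzethonium chloride controls; DSS from the fitted curve.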

[25] = system: normal primary NK cells, pool 3 (3 donors) (IL-2 2.5 ng/mL); assay: drug sensitivity score (DSS) (DSS units); higher = more sensitive; extreme values may be limits of the assay; conditions: 72 h
[26] = system: IMC-1 (IL-2 20 ng/mL); assay: as above; conditions: 72 h
[27] = system: normal primary NK cells, pool 2 (3 donors) (IL-2 2.5 ng/mL); assay: as above; conditions: 72 h
[28] = system: normal NK cells expanded with K562-aAPC; assay: as above; conditions: 72 h; IL-2 2.5 ng/mL
Protocol: as §1

Cc1sc2c(c1C)C(c1ccc(Cl)cc1)=N[C@@H](CC(=O)OC(C)(C)C)c1nnc(C)n1-2 [(+)JQ1] (max concentration tested 10000 nM)
percent inhibition of viability [%]
Conditions | [1] | [2] | [3] | [4] | [5] | [6] | [7] | [8] | [9] | [10]
1 nM | -9.07 | 3.63 | 1.42 | -7.52 | -9.69 | -3.74 | -10.6 | -15.8 | -5.26 | 1.34
10 nM | -3.7 | 11.6 | 1.32 | -10.2 | -1.54 | -13 | -2.12 | -1.34 | -16.7 | -1.16
100 nM | 24.7 | 54.6 | 9.32 | 3.52 | 29.4 | -3.42 | 19.8 | 12.2 | -31.8 | 8.16
1000 nM | 89.8 | 96.1 | 56.9 | 47.9 | 69 | 34 | 62.4 | 71.4 | 22.2 | 56.7
10000 nM | 92.7 | 98.5 | 84.1 | 53.6 | 60.9 | 74.8 | 73.2 | 74.2 | 35.5 | 59.4

Conditions | drug sensitivity score
[11] | 19.9
[12] | 24.3
[13] | 12.1
[14] | 9.24
[15] | 16.6
[16] | 8.55
[17] | 13.9
[18] | 15
[19] | 4.26
[20] | 11.7

O=C(O)C1(C(=O)O)CCC1.[NH2-].[NH2-].[Pt+2] [Carboplatin] (max concentration tested 100000 nM)
percent inhibition of viability [%]
Conditions | 10 nM | 100 nM | 1000 nM | 10000 nM | 100000 nM
[21] | -8.77 | -1.51 | 10.8 | 18.1 | 64.7
[22] | -6.21 | -0.67 | 1.27 | 61.7 | 100
[23] | 1.54 | -0.94 | 13 | 16.1 | 60.8
[24] | -8.39 | -5.27 | 0.62 | 19.3 | 100

Conditions | drug sensitivity score
[25] | 5.79
[26] | 12.8
[27] | 5.27
[28] | 8.66

Nc1nc2[nH]cc(CCc3ccc(C(=O)N[C@@H](CCC(=O)O)C(=O)O)cc3)c2c(=O)[nH]1 [Pemetrexed] (max concentration tested 10000 nM)
percent inhibition of viability [%]
Conditions | 1 nM | 10 nM | 100 nM | 1000 nM | 10000 nM
[21] | -6.87 | -6.65 | -7.52 | -11.4 | -7.17
[22] | -2.55 | -0.76 | 27.5 | 93 | 94.2
[23] | -0.42 | -8.75 | -3.95 | -3.15 | -2.1
[24] | -3.65 | -7.62 | 29.1 | 32.5 | 32.7

Conditions | drug sensitivity score
[25] | 0
[26] | 20.9
[27] | 0
[28] | 8.95

C[C@]12CC[C@@H]3c4ccc(OC(=O)N(CCCl)CCCl)cc4CC[C@H]3[C@@H]1CC[C@@H]2O [Estramustine] (max concentration tested 10000 nM)
percent inhibition of viability [%]
Conditions | 1 nM | 10 nM | 100 nM | 1000 nM | 10000 nM
[21] | -8.4 | -4.19 | -7.49 | -10.1 | -9.53
[22] | -0.43 | -1.35 | -3.43 | -6.09 | -6.87
[23] | 10 | -2.77 | -6.62 | -4.76 | -8.48
[24] | -5.93 | -3.58 | -7.28 | -7.29 | -6.53

Conditions | drug sensitivity score
[25] | 0
[26] | 0
[27] | 0
[28] | 0

CC(=O)O[C@]1(C(C)=O)CC[C@H]2[C@@H]3C=C(C)C4=CC(=O)CC[C@]4(C)[C@H]3CC[C@@]21C [Megestrol acetate] (max concentration tested 10000 nM)
percent inhibition of viability [%]
Conditions | 1 nM | 10 nM | 100 nM | 1000 nM | 10000 nM
[21] | -8.34 | -5.63 | 0.83 | 2.52 | 24.3
[22] | -3.51 | -1.23 | -4.32 | -2.13 | 10.4
[23] | -3.39 | 3.68 | -0.74 | 11.2 | 49.3
[24] | -2.74 | -5.98 | 7.94 | 13.9 | 28.7

Conditions | drug sensitivity score
[25] | 1.28
[26] | 0
[27] | 4.38
[28] | 2.54
